Experimental data published in US5516908A, “1,3-dihydro-2H-imidazo-[4,5-β]quinolin-2-one derivatives and intermediates” (Janssen Pharmaceutica N.V., priority 1995, dated 1996).

Assays:
Assay type in all cases: biochemical
Human heart PDE III = target: T1, Human heart PDE III (Homo sapiens, UniProt Q14432); test: Inhibition of Phosphodiesterase Type III (PDE III), human heart; details: 1.2 μM 3H-cAMP, pH 7.1, 10 min at 37° C.
T1 construct: canine and human heart phosphodiesterase PDE III; from tissue; host or cells: human heart (muscle)
T1 sequence (Q14432 whole entry): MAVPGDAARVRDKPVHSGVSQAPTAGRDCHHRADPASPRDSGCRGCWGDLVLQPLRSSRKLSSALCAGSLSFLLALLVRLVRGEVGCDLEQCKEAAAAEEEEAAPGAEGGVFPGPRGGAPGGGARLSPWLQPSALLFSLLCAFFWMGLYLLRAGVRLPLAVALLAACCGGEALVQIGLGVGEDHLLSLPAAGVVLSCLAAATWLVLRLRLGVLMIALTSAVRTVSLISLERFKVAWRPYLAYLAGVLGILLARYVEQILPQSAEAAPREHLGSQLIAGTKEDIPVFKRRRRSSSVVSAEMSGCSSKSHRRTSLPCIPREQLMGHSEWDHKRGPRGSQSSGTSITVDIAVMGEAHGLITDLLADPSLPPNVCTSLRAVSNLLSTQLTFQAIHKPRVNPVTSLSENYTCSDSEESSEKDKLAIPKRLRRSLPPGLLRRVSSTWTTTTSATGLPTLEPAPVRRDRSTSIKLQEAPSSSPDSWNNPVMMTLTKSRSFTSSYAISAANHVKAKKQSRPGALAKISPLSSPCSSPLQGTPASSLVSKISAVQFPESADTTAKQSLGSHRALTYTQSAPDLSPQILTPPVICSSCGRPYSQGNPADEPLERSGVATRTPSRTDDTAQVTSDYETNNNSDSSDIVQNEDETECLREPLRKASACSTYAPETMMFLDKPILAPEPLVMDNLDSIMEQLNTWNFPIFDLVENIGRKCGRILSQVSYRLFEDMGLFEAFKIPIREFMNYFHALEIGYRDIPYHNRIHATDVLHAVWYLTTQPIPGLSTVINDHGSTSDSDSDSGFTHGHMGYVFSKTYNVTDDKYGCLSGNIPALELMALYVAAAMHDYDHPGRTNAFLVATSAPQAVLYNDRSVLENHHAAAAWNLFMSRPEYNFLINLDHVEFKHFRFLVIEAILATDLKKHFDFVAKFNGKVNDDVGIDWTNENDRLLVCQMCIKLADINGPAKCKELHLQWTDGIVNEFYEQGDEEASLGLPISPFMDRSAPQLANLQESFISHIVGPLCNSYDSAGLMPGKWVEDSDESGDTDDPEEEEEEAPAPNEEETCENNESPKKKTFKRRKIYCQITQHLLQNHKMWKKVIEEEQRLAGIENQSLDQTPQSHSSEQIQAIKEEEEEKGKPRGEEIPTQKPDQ
Procedure: (§1) The alleviating and/or curing effect of the instant compounds on allergic and atopic diseases was assessed by an in vitro assay system to detect an inhibiting effect on the phosphodiesterase type III in human and canine muscle cells and a similar inhibiting effect on the phosphodiesterase type IV in human mononuclear lymphocytes.
(§2) The incubation mixture (pH 7.1) (200 μl) contained 40 mM Tris, 3.75 mM 2-mercaptoethanol, 6 mM magnesium chloride, 1.2 μM ^3 H-cAMP (310 mCi/mmole) and the phosphodiesterase type III, the amount depending on the enzymatic activity.
(§3) When the effect of different compounds on phosphodiesterase activity was tested, the medium without cAMP was incubated with the compound(s) or its carrier (DMSO-1% final concentration) for 5 min. The enzymatic reaction was started by addition of ^3 H-cAMP and stopped 10 min later after transferring the tubes in a waterbath at 100° C. for 40 sec. After cooling to room temperature, alkaline phosphatase (0.25 μg/ml) was added and the mixture was left at room temperature for 20 min. The mixture was subsequently applied to a 1 ml DEAE-Sephadex A-25 column (pasteur pipet) and washed twice with 3 ml 20 mM Tris-HCl at pH 7.4. The ^3 H-labelled reaction products in the eluate were quantified by liquid scintillation counting.
(§4) The inhibiting effect of the present compounds on canine and human heart phosphodiesterase PDE III was measured at different concentrations of the instant compounds. The IC50 values were calculated graphically from the thus obtained inhibition values.

Human MNL PDE IV = test: Inhibition of Phosphodiesterase Type IV From Human Mononuclear Lymphocytes (MNL); details: human mononuclear lymphocyte PDE IV; in presence of 10^-4 M cGMP; 1.2 μM 3H-cAMP, pH 7.1, 10 min at 37° C.
Procedure: as §1
Human blood was obtained from donors that were documented before to suffer from allergic or atopic disease. 35 ml of blood was obtained from the […] veins by venipuncture and collected in 5 ml 100 mM K2 EDTA pH 7.1. 4 ml of 0.6% dextran in saline was added and the mixture was left at room temperature for 30 min. The red blood cell free supernatant was collected, layered gently on a Lymphoprep solution and centrifuged at 750 g for 15 min at 18° C. The interfase was collected, diluted with a buffer containing […], 50 mM KCl and 100 mM HEPES at pH 7.4, and centrifuged at 900 g for 10 min at 10° C. The resulting pellet was resuspended in the same buffer.
The suspension of MNLs was adjusted to 1% Triton X100 and 0.3% Brij35 and frozen in liquid N2. After 3 freeze-thawn cycles, the suspension was homogenized at 4° C. in a Polytron PT3000 (Kinematica AG) homogenizer (PT-DA 3020/2 TS) at 8000 rpm for 5×10 sec, followed by sonication at 4° C. in a Branson sonifier 250 at a frequency output of 20000 Hz, working output 40 W for 10×30 sec. The homogenate was centrifuged at 10000 g for 10 min. The resulting supernatant was used as source for PDE IV activity. The incubation mixture (pH 7.1) (200 μl) contained 40 mM Tris, 3.75 mM 2-mercapto-ethanol, 6 mM magnesium chloride, 1.2 μM ^3 H-cAMP (310 mCi/mmole) and the phosphodiesterase type IV, the amount depending on the enzymatic activity. […] To block contaminating PDE III activity, PDE IV activity was measured in the presence of 10^-4 M cGMP.
as §3
The inhibiting effect of the present compounds on human mononuclear lymphocyte phosphodiesterase PDE IV was measured at different concentrations of the instant compounds. The IC50 values were calculated graphically from the thus obtained inhibition values.

Canine heart PDE III = target: T2, Canine heart PDE III (Canis lupus familiaris, UniProt A0A8I3NYE0); test: Inhibition of Phosphodiesterase Type III (PDE III), canine heart; details: 1.2 μM 3H-cAMP, pH 7.1, 10 min at 37° C.
T2 construct: canine and human heart phosphodiesterase PDE III; from tissue; host or cells: canine heart (muscle)
T2 sequence (A0A8I3NYE0 1-1135): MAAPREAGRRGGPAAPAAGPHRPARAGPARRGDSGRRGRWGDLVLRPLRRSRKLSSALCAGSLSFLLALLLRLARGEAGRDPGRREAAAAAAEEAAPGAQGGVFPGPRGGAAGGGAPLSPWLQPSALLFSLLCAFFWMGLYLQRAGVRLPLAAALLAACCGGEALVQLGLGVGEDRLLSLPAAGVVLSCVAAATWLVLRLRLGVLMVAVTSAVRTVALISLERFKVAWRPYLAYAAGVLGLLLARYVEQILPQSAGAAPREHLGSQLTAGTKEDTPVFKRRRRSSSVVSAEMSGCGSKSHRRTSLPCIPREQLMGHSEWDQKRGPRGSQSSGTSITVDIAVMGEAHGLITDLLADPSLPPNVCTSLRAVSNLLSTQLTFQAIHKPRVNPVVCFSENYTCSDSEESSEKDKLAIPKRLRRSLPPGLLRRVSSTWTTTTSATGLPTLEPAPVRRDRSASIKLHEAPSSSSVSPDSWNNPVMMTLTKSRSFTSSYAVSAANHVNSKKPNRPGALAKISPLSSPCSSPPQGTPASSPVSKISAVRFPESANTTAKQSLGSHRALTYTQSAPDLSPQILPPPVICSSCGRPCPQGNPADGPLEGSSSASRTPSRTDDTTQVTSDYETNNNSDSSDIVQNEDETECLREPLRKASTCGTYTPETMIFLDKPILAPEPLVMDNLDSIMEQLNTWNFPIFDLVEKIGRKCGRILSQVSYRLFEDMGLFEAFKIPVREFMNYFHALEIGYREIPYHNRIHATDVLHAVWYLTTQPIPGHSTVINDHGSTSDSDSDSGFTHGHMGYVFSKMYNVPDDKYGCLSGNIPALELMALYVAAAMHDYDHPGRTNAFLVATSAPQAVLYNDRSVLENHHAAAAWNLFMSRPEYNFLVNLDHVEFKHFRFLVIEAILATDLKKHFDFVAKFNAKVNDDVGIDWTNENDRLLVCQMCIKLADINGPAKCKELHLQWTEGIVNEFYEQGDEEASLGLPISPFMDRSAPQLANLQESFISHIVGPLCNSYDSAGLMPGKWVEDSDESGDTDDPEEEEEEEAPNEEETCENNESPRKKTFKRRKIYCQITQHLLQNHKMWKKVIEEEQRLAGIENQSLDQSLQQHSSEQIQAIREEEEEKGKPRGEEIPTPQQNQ
Procedure: as §1, §2, §3, §4

Compound | IC50 (Human heart PDE III) [nM] | IC50 (Human MNL PDE IV) [nM] | IC50 (Canine heart PDE III) [nM]
O=C(c1ccccc1)c1ccc2nc3[nH]c(=O)[nH]c3cc2c1 [Compound 1, 7-benzoyl-1,3-dihydro-2H-imidazo[4,5-b]quinolin-2-one] | 42 | 5800 | 10
COc1ccc(C(=O)c2ccc3nc4[nH]c(=O)[nH]c4cc3c2)cc1OC [Compound 2, 7-(3,4-dimethoxybenzoyl)-1,3-dihydro-2H-imidazo[4,5-b]quinolin-2-one] | 86 | 4500 | 33
O=C(c1ccc(F)cc1)c1ccc2nc3[nH]c(=O)[nH]c3cc2c1 [Compound 3, 7-(4-fluorobenzoyl)-1,3-dihydro-2H-imidazo[4,5-b]quinolin-2-one] | 36 |  | 37
Cc1ccc(C(=O)c2ccc3nc4[nH]c(=O)[nH]c4cc3c2)cc1 [Compound 4, 1,3-dihydro-7-(4-methylbenzoyl)-2H-imidazo[4,5-b]quinolin-2-one] | 18 |  | 26
O=C(c1cccnc1)c1ccc2nc3[nH]c(=O)[nH]c3cc2c1 [Compound 5, 1,3-dihydro-7-(3-pyridinylcarbonyl-2H-imidazo[4,5-b]quinolin-2-one monohydrate] | 120 |  | 42
CCOC(=O)CCCCO/N=C(\c1cccnc1)c1ccc2nc3[nH]c(=O)[nH]c3cc2c1 [Compound 6] | 44 | 1700 | 30
CN(C(=O)CO/N=C(/c1ccccc1)c1ccc2nc3[nH]c(=O)[nH]c3cc2c1)C1CCCCC1 [Compound 7] | 27 | 2600 | 32
COc1cccc(C(=O)c2ccc3nc4[nH]c(=O)[nH]c4cc3c2)c1 [Compound 9] | 18 |  | 21

Continued, values first:

IC50 (Human heart PDE III) [nM] | IC50 (Human MNL PDE IV) [nM] | IC50 (Canine heart PDE III) [nM] | Compound
17 | 490 | 14 | CN(C(=O)CO/N=C(\c1ccccc1)c1ccc2nc3[nH]c(=O)[nH]c3cc2c1)C1CCCCC1 [Compound 10, (E)-N-cyclohexyl-2-[[[(2,3-dihydro-2-oxo-1H-imidazo{4,5-b]quinolin-7-yl)phenylmethylene]amino]oxy]-N-methylacetamide]
39 |  | 26 | CCOC(=O)CO/N=C/c1ccc2nc3[nH]c(=O)[nH]c3cc2c1 [Compound 11]
33 | 3600 | 29 | CCOC(=O)CCCCO/N=C(/c1cccnc1)c1ccc2nc3[nH]c(=O)[nH]c3cc2c1 [Compound 12]
49 |  | 84 | O=C(O)CCCCO/N=C(\c1cccnc1)c1ccc2nc3[nH]c(=O)[nH]c3cc2c1 [Compound 13, (Z)-5-[[[(2,3-dihydro-2-oxo-1H-imidazo[4,5-b]-quinolin-7-yl)(3-pyridinyl)methylene]amino]oxy]pentanoic acid]
100 |  | 100 | O=C(O)CCCCON=C(c1cccnc1)c1ccc2nc3[nH]c(=O)[nH]c3cc2c1 [Compound 14, (E+Z)-5-[[[(2,3-dihydro-2-oxo-1H-imidazo[4,5-b]quinolin-7-yl)(3-pyridinyl)methylene]amino]oxy]pentanoic acid monohydrate]
